From a melting point compilation (Tetko et al.; mined from patent text by program, amines drawn as free bases though some values may be those of a salt)

Row | Structure (SMILES) | melting point
1 | CCN1CCC(c2c[nH]c3ccc(NS(C)(=O)=O)cc23)CC1 | 179 to 181 °C
2 | CCOC(=O)C(C)=NNc1ccc(Cl)cc1Cl | 118 to 120 °C
3 | CCc1c(OCc2ccccc2)nc(OCc2ccccc2)nc1C(=O)c1cc(C)cc(C#N)c1 | 123 to 124 °C
4 | O=C1CCSC(c2ccccc2Cl)c2cc([N+](=O)[O-])ccc2N1 (stereo unspecified) | 285 °C
5 | CNc1ccc(C=CC(=O)N2CCc3c([nH]c4ccccc34)C2c2ccc3c(c2)CCO3)cn1 (stereo unspecified) | 171 °C
6 | COc1ccc(-c2cc(=S)n(Cc3cccnc3)nc2-c2ccc(OC)cc2)cc1 | 163 to 164 °C
7 | CCn1c(C(F)(F)F)n[nH]c1=S | 93 °C
8 | COc1ccc2cc(-c3ncn[nH]3)ccc2n1 | 198 to 200 °C
9 | Cc1cccc(C(=O)OC2CCCCC2=O)c1 (stereo unspecified) | 73 to 74 °C
10 | Cc1nc2cc3c(cc2c(=O)n1COC(=O)C(C)(C)C)CCC3 | 128 °C
11 | O=C(NC1CN2CCC1CC2)C(O)(c1cccs1)c1cccs1 (stereo unspecified) | 169 °C
12 | COc1cccc(CN2C(=O)N(c3cnn(Cc4c(C)noc4C)c3)C(=O)C2(C)C)c1 | 107 to 108 °C
13 | CC(=O)Nc1c(C(=O)c2occc2CO)[nH]c2cc(Cl)ccc12 | 196 to 198 °C
14 | CC(C)n1c(=O)sc2cc(N3C[C@H](C(N)=O)OC3=O)ccc21 | 183 to 184 °C
15 | CC(C)c1c(Sc2cc(Cl)cc(Cl)c2)nc(CO)n1C | 167 to 168 °C
16 | NS(=O)(=O)c1ccc(NC(=O)CNc2ccccc2)cc1Cl | 192 to 194 °C
17 | CCOc1ccc(C(=O)Nc2ccccc2)cc1NC(=S)Nc1cc(Cl)cc(Cl)c1 | 201 to 202 °C
18 | CC(C)(C)c1nnc(NN=Cc2ccccc2)s1 | 195 to 196 °C
19 | COc1ccc2ncc([N+](=O)[O-])c(O)c2c1 | 278 to 281 °C
20 | O=C1C(Cl)=C(c2ccccc2)C1(F)F | 77.5 to 78 °C
21 | C=CCONc1nc(NC=O)nc(Cl)c1NC=O | 170 to 181 °C
22 | OCCCc1oc(-n2cncn2)nc1-c1ccc(Cl)cc1 | 139 to 140 °C
23 | O=C(O)C1=NC(c2ccc(Cl)cc2Cl)N(c2ccc(Cl)cc2)C1 (stereo unspecified) | 150 to 151 °C
24 | CC(C)(C)c1cc(=S)cc(C(C)(C)C)s1 | 162 °C
25 | COC(=O)c1cccc(COc2cc(Cl)cnc2N)c1 | 148 to 150 °C
26 | Cc1noc(NS(=O)(=O)c2ccccc2-c2ccc(-c3ncco3)cc2CN2Cc3ccccc3C2=O)c1C | 135 to 142 °C

Row | Structure (SMILES) | melting point
27 | CCCCc1nc2sc(Cl)cc2c(=O)n1CCC | 67 to 69 °C
28 | C[C@@H](n1cnn(-c2ccc(OCC(F)(F)C(F)F)cc2)c1=O)[C@@]1(c2ccc(F)cc2F)CO1 | 116 to 117 °C
29 | CC(=O)N1C(=O)c2cccnc2N(C2CC2)c2nc(Cl)cc(C)c21 | 204 to 206 °C
30 | COc1c(Br)c(-c2csc(C(C)C)n2)cc2oc(=O)c(Cl)c(C)c12 | 186 °C
31 | CC(C)c1cccc(C(C)C)c1NC(=O)CNC(c1ccccc1)c1ccc([N+](=O)[O-])cc1 (stereo unspecified) | 177 to 179 °C
32 | Cc1cccc(C)c1NC(=O)CCNCCNC(C)C | 69.5 °C
33 | CC(C)(C)OC(=O)CN(C(=O)CN1C(=O)c2ccccc2C1=O)c1ccccc1F | 140 °C
34 | C=CCNC(=O)Nc1ccc([N+](=O)[O-])cc1O | 135 to 136 °C
35 | O=C1CCC(C(=O)NCc2cccc3ccccc23)c2ccccc21 (stereo unspecified) | 155 to 156 °C
36 | COC(=O)c1ccc2c(c1)SCCC2O (stereo unspecified) | 79 to 81 °C
37 | Clc1cccc(N2CCN(CCCc3nnn[nH]3)CC2)c1 | 162 to 164 °C
38 | CC(=NOCCOc1ccc(CC2SC(=O)NC2=O)cc1)c1ccc(NS(=O)(=O)c2ccccc2)cc1 (stereo unspecified) | 213 to 215 °C
39 | Nc1nc2n(c(=O)c1N=O)CCN2Cc1ccc(Cl)cc1 | 273 to 275 °C
40 | OC(c1ccc(F)cc1)(c1ccc(F)cc1)C1CCN(Cc2ccccc2)CC1 | 113 to 115 °C
41 | CCc1nc2c(N)nc3cc(Oc4ccc(C(=O)OC)cn4)ccc3c2s1 | 213 to 214 °C
42 | N#Cc1nn(-c2c(Cl)cc(C(F)(F)F)cc2Cl)cc1I | 83 to 84 °C
43 | O=C(C=Cc1cccc(-c2ccccc2)c1)Nc1ccc(CP2(=O)OCCCO2)cc1 | 204 to 205 °C
44 | Nc1c(F)c(F)c(F)c(F)c1NC(=S)Nc1c(Cl)cccc1Cl | > 300 °C
45 | CN(C)C1CCc2oc3ccc([N+](=O)[O-])cc3c2C1 (stereo unspecified) | 88 to 89 °C
46 | O=S(=O)(NC(c1ccc(F)cc1)c1ccnn1-c1ccc(F)cc1)c1ccc(Cl)s1 (stereo unspecified) | 159 to 160 °C
47 | CCCCCN1C(=O)C(NC(=O)OC(C)(C)C)c2ccccc21 (stereo unspecified) | 145 to 147 °C
48 | COc1ccc(NC(=O)c2cccc(OC)c2N)cc1 | 168 to 169 °C
49 | O=C(NC12CC3CC(CC1C3)C2)c1ccccc1C(c1ccc(O)cc1)c1ccc(O)cc1 | 219 to 224 °C
50 | C[C@H](COc1ccc(C=C2SC(=S)N(CC(=O)O)C2=O)cc1O[C@@H](c1ccccc1)C(F)(F)F)c1ccccc1 | 73 to 80 °C
51 | CCOC(=O)c1ncn(-c2nccs2)c1S(N)(=O)=O | 84 to 85 °C
52 | Clc1ccc(Nc2nc(-c3cccc(Cl)n3)nc3ccccc23)cc1 | 212 to 213 °C

Row | Structure (SMILES) | melting point
53 | CCOCC1COc2cc3c(O)c(C#N)cnc3cc2O1 (stereo unspecified) | 248 to 254 °C
54 | C[C@@H](n1cnc2cccc(Cl)c2c1=O)[C@](O)(Cn1cncn1)c1ccc(F)cc1F | 114 to 119 °C
55 | CCn1nnc2cc3c(=O)n(C(C)Cn4ncnn4)nnc3cc2c1=O (stereo unspecified) | 174 to 176 °C
56 | OCCN1CCn2c1nc1ccccc12 | 158 to 160 °C
57 | Cc1ccc(S(=O)(=O)N2N=C(c3ccccc3)CC3CCCC32)cc1 (stereo unspecified) | 171 to 176 °C
58 | O=C1C=C2CN(C(C(=O)C3CC3)c3ccccc3F)CCC2S1 (stereo unspecified) | 123 to 125 °C
59 | CCCCc1nc2c(N)nc3ccc(OCc4ccccc4)cc3c2n1CCCCNS(=O)(=O)c1ccccc1 | 204 to 205 °C
60 | C[C@@H](SC(CO)CO)[C@](O)(Cn1cncn1)c1ccccc1F | 121 to 123 °C
61 | CCOC(=O)N1Cc2c(n(-c3ccc(F)cc3)c3ccc(F)cc23)C1 | 143 to 145 °C
62 | COc1ccc(/C=C/C=C/C(=O)Oc2ccc([N+](=O)[O-])cc2)cc1 | 176 to 177 °C
63 | Cc1ccc(C2c3c(C)cc(C)c(C)c3OC2(C)C)cc1 (stereo unspecified) | 117 to 118 °C
64 | O=C(c1ccc(F)cn1)N1CCC[C@H](c2noc(-c3ccc(F)cc3)n2)C1 | 93 to 95 °C
65 | COc1ccc(C2CCc3ccccc3O2)cc1 (stereo unspecified) | 82 to 83 °C
66 | COc1ccc(SCc2oc(=O)oc2C)cc1 | 59 to 61 °C
67 | O=C(Nc1ccc(-n2nc(C(F)(F)F)cc2Br)cc1)c1ccncc1Cl | 79 to 82 °C
68 | CC1Cc2ccccc2P1c1ccccc1P(c1ccccc1)c1ccccc1 (single isomer, unassigned; (+)) | 40 to 42 °C
69 | NNc1ccc([N+](=O)[O-])cc1S(N)(=O)=O | 209 to 210 °C
70 | CCc1cc(C(=O)OC)c(Nc2ccc(OC)cc2[N+](=O)[O-])s1 | 125 to 127 °C
71 | COC1=C(OC)C(=O)C2=C(CC(CCCCCCCCOC(C)=O)C2)C1=O | 47 to 48 °C
72 | CNC(=O)c1ccc(-c2ccc(OC)c(-c3cccc([N+](=O)[O-])c3)c2)cc1 | 171 to 172 °C
73 | COC(=O)c1cc(C(=O)NCCNC(C)=O)c2cc(Cc3ccc(F)cc3)cnc2c1O | 251 to 253 °C
74 | N#Cc1cnc2c(sc3ccccc32)c1Nc1ccc(Cl)cc1Cl | 260 to 262 °C
75 | CCSc1nsc(NC(=O)NC)c1C(N)=O | 205 °C
76 | CCc1nn(C(=O)OC(C)(C)C)c2cc(-c3ccc4nnn(Cc5ccc6ncccc6c5)c4n3)ccc12 | 185 to 188 °C
77 | COC(=O)c1ccc2[nH]cc(CC#N)c2c1 | 127 to 129 °C
78 | Cc1noc(NS(=O)(=O)c2cccc3c(NC(=O)C(C)C)cccc23)c1C | 177 to 180 °C

Row | Structure (SMILES) | melting point
79 | CSc1cc(C(=O)O)ccc1C | 175 °C
80 | Cn1c(C(CCN2CCC(O)(c3ccccc3)CC2)c2ccc(Cl)c(Cl)c2)cc2ccccc2c1=O (stereo unspecified) | 100 to 102 °C
81 | COc1cccc(/C(=C\C=C\C(=O)NCCCCc2cccnc2)c2cccc(F)c2)c1 | 96 to 98 °C
82 | CC(C)(C)[C@H]1CC[C@@H](Nc2nnc(CCc3cccnc3)c3ccccc23)CC1 | 155 to 157 °C
83 | O=C(c1ccccc1C(c1ccc(O)cc1)c1ccc(O)cc1)N1CCSCC1 | 259 to 261 °C
84 | CCCCCCCC/C=C\CCCCCCCC(=O)Nc1nc(CC(=O)O)cs1 | 106 to 108 °C
85 | CCCCN(CCCC)c1ccc(C=Cc2ccc(C(C#N)=c3ccc(=C(C#N)C#N)cc3)s2)c(OC)c1 | 211 to 214 °C
86 | NC(=O)c1cc2c(cc1OCC1CCCCC1)CCCCC2N (stereo unspecified) | 170 to 172 °C
87 | CC1CCC2C3CC(=O)C4=CC(=O)CCC4(C)C3CCC12C (stereo unspecified) | 94 to 95 °C
88 | CCCCN(Cc1ccc(-c2ccccc2-c2nc(=O)o[nH]2)cc1)c1ncccc1C(=O)O | 95 to 98 °C
89 | CCn1cc(C(=O)O)c(=O)c2cc(F)c(N3CCOC(CCl)C3)c(F)c21 (stereo unspecified) | 212 to 215 °C
90 | Cc1cc(C)cc(C(=O)c2c(C(C)C)c(=O)[nH]c(=O)n2Cc2ccnc(Cl)n2)c1 | 197 to 198 °C
91 | Nc1nc2c(c3[nH]cnc13)CCCC2 | > 300 °C
92 | O=C(Nc1ccc(-c2ccccc2Cl)[nH]c1=O)OCc1ccccc1 | 213 to 215 °C
93 | O=[N+]([O-])c1ccc(NCCF)nc1 | 126 to 127 °C
94 | CCCC1=C(C#N)C(c2cccc(N3CCOCC3)c2)c2c[nH]nc2N1 (stereo unspecified) | 196 to 200 °C
95 | NC(=O)c1ccc(CN2C(=O)C3(COc4cc5c(cc43)OCCO5)c3ccccc32)cc1 (stereo unspecified) | 236 to 238 °C
96 | O=C1c2ccccc2C(=O)c2cc(S(=O)(=O)NCCCN3CCOCC3)ccc21 | 151 to 156 °C
97 | Cc1cc(Cc2cc(C)c(N)c(C)c2)cc(C)c1N | 119 to 120 °C
98 | CCNC(=O)c1cc(NC(=O)c2ccccc2)ccc1[Si](C)(C)C | 185 to 187 °C
99 | CCCc1nc2cccc(C(=S)OC)c2n1Cc1ccc(-c2ccccc2-c2nc(=O)o[nH]2)cc1 | 220 to 221 °C
100 | O=C1CCC(C(=O)Nc2ccc(Cl)cc2C(=O)c2ccccc2Cl)O1 (stereo unspecified) | 170 to 173 °C
101 | CC(=Cc1ccccc1)S(=O)(=O)NC(=O)N1CCCCC1 | 159 to 161 °C
